One assay concerns the target T1, human TLR8 (Homo sapiens, UniProt Q9NR97).
T1 sequence (Q9NR97 27-1041): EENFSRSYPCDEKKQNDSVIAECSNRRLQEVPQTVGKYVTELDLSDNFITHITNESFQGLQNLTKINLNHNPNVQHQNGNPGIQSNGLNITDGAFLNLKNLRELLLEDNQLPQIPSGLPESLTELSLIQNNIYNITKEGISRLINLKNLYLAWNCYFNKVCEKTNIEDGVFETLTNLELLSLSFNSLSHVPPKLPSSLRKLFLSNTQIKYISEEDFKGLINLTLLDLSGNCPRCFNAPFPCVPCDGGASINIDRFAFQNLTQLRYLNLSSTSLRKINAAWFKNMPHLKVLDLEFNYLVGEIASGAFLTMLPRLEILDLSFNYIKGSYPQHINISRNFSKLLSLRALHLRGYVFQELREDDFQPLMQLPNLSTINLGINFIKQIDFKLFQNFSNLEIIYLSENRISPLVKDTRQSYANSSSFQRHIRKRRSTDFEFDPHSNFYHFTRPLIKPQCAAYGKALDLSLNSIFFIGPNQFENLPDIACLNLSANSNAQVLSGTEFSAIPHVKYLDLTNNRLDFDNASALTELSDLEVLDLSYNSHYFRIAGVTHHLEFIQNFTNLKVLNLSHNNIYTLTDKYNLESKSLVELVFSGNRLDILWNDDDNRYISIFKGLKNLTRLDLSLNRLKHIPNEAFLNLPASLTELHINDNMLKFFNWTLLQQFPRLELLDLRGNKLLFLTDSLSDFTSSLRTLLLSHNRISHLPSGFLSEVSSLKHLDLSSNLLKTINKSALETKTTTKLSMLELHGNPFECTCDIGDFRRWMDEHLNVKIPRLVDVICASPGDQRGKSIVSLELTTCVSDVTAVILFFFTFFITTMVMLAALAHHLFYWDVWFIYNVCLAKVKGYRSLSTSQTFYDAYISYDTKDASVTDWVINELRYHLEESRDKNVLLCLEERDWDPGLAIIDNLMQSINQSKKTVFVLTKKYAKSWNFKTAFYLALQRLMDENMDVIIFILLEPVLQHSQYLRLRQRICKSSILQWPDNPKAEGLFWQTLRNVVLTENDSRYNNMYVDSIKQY
Nature of the assay: HEK293-Blue-hTLR-8 cells assay.

The target of another assay is T2, human TLR9 (Homo sapiens, UniProt Q9NR96).
T2 construct: host or cells: HEK293 (HEK-Blue hTLR9)
T2 sequence (Q9NR96 26-1032): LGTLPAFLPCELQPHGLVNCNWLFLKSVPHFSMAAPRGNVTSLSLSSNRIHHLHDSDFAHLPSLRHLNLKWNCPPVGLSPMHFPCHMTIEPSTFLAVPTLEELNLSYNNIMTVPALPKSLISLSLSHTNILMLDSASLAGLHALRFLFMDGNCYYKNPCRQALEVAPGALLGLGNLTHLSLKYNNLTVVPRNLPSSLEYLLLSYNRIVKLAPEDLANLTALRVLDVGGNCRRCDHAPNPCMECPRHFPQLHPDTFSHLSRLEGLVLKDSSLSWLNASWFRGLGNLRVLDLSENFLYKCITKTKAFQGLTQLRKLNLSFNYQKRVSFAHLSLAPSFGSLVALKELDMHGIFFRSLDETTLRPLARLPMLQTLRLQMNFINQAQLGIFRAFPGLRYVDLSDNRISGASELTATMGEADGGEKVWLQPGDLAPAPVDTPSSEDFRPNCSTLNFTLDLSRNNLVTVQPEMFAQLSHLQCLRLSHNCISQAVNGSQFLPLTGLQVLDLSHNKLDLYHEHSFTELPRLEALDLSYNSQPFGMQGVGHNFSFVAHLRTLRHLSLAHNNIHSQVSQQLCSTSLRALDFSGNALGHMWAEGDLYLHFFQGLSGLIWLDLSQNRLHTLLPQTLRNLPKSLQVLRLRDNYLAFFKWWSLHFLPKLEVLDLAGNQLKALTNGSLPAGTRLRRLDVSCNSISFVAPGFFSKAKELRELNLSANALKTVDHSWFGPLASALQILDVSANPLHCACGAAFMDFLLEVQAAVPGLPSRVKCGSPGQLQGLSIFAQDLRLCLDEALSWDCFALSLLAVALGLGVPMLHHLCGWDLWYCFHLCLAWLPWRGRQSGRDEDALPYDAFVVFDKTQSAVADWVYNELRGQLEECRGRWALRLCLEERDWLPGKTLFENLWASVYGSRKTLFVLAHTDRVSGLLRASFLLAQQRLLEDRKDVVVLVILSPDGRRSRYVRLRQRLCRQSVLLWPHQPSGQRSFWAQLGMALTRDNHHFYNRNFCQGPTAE
Kind of assay: HEK293-Blue-hTLR-9 cells assay. The following applies: HEK293-Blue-hTLR9 cells, ODN2006 stimulation, 20 hrs, SEAP reporter; read-out: HEK/hTLR9 IC50. It counts as cell-based. As for the experimental part:
The following tests were carried out in order to determine the activity of the compounds of formula (I) and (Ia) in HEK293-Blue-hTLR-7/8/9 cells assay.
HEK293-Blue-hTLR-9 Cells Assay:
A stable HEK293-Blue-hTLR-9 cell line was purchased from InvivoGen (Cat. #: hkb-htlr9, San Diego, Calif., USA). These cells were originally designed for studying the stimulation of human TLR9 by monitoring the activation of NF-κB. A SEAP (secreted embryonic alkaline phosphatase) reporter gene was placed under the control of the […] minimal promoter fused to five NF-κB and AP-1-binding sites. The SEAP was induced by activating NF-κB and AP-1 via stimulating HEK-Blue hTLR9 cells with TLR9 ligands. Therefore, the reporter expression was declined by TLR9 antagonist under the stimulation of a ligand, such as ODN2006 (Cat. #: tlr1-2006-1, Invivogen, San Diego, Calif., USA), for incubation of 20 hrs. The cell culture supernatant SEAP reporter activity was determined using QUANTI-Blue™ kit (Cat. #: rep-qb1, Invivogen, San Diego, Calif., USA) at a wavelength of 640 nm, a detection medium that turns purple or blue in the presence of alkaline phosphatase.
Then 20 μL of the supernatant from each well was incubated with 180 μL Quanti-blue substrate solution at 37° C. for 2 h and the absorbance was read at 620-655 nm using a spectrophotometer. The signaling pathway that TLR9 activation leads to downstream NF-κB activation has been widely accepted, and therefore similar reporter assay was modified for evaluating TLR9 antagonist.

The structures appear in SMILES notation.

Regarding `C[C@@H]1CN(c2ccc(C#N)c3ncccc23)C[C@@H]2CN(CCc3ccc(N4CC5(CN(C)C5)C4)nc3)CCN21` [Example 22, 5-[(4R,9aS)-4-methyl-8-[2-[6-(6-methyl-2,6-diazaspiro[3.3]heptan-2-yl)-3-pyridyl]ethyl]-3,4,6,7,9,9a-hexahydro-1H-pyrazino[1,2-a]pyrazin-2-yl]quinoline-8-carbonitrile], the results for the IC50 against human TLR8 and at human TLR9 were 0.058 µM and 0.047 µM, respectively.

As for `[2H]c1ccc2c(N3C[C@@H]4CN(c5ccc(CCN6C[C@H](OC)[C@@H](N)C6)cn5)CCN4[C@@H](C)C3)ccc(C#N)c2n1` [Example 122, 5-[(4S,9aR)-8-[5-[2-[(3S,4S)-3-amino-4-methoxy-pyrrolidin-1-yl]ethyl]-2-pyridyl]-4-methyl-3,4,6,7,9,9a-hexahydro-1H-pyrazino[1,2-a]pyrazin-2-yl]-2-deuterio-quinoline-8-carbonitrile], the IC50 was found to be 0.003 µM against human TLR8 and 0.051 µM on human TLR9.

As for `Cc1cc(N2CCN3[C@@H](C2)CN(c2ccc(C#N)c4ncccc24)C[C@H]3C)cc(N2CC(C)(N)C2)n1` [Example 73, 5-[(4R,9aS)-8-[2-(3-amino-3-methyl-azetidin-1-yl)-6-methyl-4-pyridyl]-4-methyl-3,4,6,7,9,9a-hexahydro-1H-pyrazino[1,2-a]pyrazin-2-yl]quinoline-8-carbonitrile], the IC50 is 0.018 µM against human TLR8 and under 0.032 µM on human TLR9.

Consider `CO[C@@H]1CN(c2ccc(CCN3CCN4[C@@H](C3)CN(c3ccc(C#N)c5ncccc35)C[C@H]4C)cc2)C[C@H]1N` [Example 26, 5-[(4R,9aS)-8-[2-[4-[(3R,4R)-3-amino-4-methoxy-pyrrolidin-1-yl]phenyl]ethyl]-4-methyl-3,4,6,7,9,9a-hexahydro-1H-pyrazino[1,2-a]pyrazin-2-yl]quinoline-8-carbonitrile], for which the IC50 was determined as 0.008 µM on human TLR8 and 0.087 µM at human TLR9.

`Cc1cc(N2CCN3[C@@H](C2)CN(c2ccc(C#N)c4ncccc24)C[C@H]3C)nc(N2CC(C)(N)C2)n1` [Example 55, 5-[(4R,9aR)-8-[2-(3-amino-3-methyl-azetidin-1-yl)-6-methyl-pyrimidin-4-yl]-4-methyl-3,4,6,7,9,9a-hexahydro-1H-pyrazino[1,2-a]pyrazin-2-yl]quinoline-8-carbonitrile]: the IC50 on human TLR8 is 0.04 µM; at human TLR9 it was 0.048 µM.

`CO[C@@H]1CN(c2ccc(CCN3CCN4[C@@H](C3)CN(c3ccc(C#N)c5ncccc35)C[C@H]4C)cn2)C[C@H]1N` [Example 12, 5-[(4R,9aS)-8-[2-[6-[(3R,4R)-3-amino-4-methoxy-pyrrolidin-1-yl]-3-pyridyl]ethyl]-4-methyl-3,4,6,7,9,9a-hexahydro-1H-pyrazino[1,2-a]pyrazin-2-yl]quinoline-8-carbonitrile]: the IC50 is 0.014 µM against human TLR8 and 0.047 µM on human TLR9.

As for `C[C@@H]1CN(c2ccc(C#N)c3ncccc23)C[C@@H]2CN(c3ccnc(N4CCNCC4)n3)CCN21` [Example 33, 5-[(4R,9aR)-4-methyl-8-(2-piperazin-1-ylpyrimidin-4-yl)-3,4,6,7,9,9a-hexahydro-1H-pyrazino[1,2-a]pyrazin-2-yl]quinoline-8-carbonitrile], the IC50 against human TLR8 is 0.008 µM; at human TLR9 it was 0.064 µM.

For the compound `[2H]c1ccc2c(N3C[C@@H]4CN(c5ncc(N6CC7CC(C6)N7)cc5C)CCN4[C@@H](C)C3)ccc(C#N)c2n1` [Example 108, 5-[(4S,9aR)-8-[5-(3,6-diazabicyclo[3.1.1]heptan-3-yl)-3-methyl-2-pyridyl]-4-methyl-3,4,6,7,9,9a-hexahydro-1H-pyrazino[1,2-a]pyrazin-2-yl]-2-deuterio-quinoline-8-carbonitrile], the IC50 at human TLR8 is 0.006 µM; on human TLR9, 0.098 µM.

Turning to `C[C@@H]1CN(c2ccc(C#N)n3ncc(F)c23)C[C@@H]2CN(CCc3ccc(N4CC(C)(N)C4)nc3)CCN21` [Example 74, 4-[(4R,9aS)-8-[2-[6-(3-amino-3-methyl-azetidin-1-yl)-3-pyridyl]ethyl]-4-methyl-3,4,6,7,9,9a-hexahydro-1H-pyrazino[1,2-a]pyrazin-2-yl]-3-fluoro-pyrazolo[1,5-a]pyridine-7-carbonitrile], the figures for the IC50 against human TLR8 and at human TLR9 were 0.062 µM and 0.048 µM, respectively.

As for `C[C@@H]1CN(c2ccc(C#N)c3ncccc23)C[C@@H]2CN(Cc3cncc(N4CCNCC4)c3)CCN21` [Example 57, 5-[(4R,9aS)-4-methyl-8-[(5-piperazin-1-yl-3-pyridyl)methyl]-3,4,6,7,9,9a-hexahydro-1H-pyrazino[1,2-a]pyrazin-2-yl]quinoline-8-carbonitrile], the IC50 against human TLR8 was 0.022 µM; on human TLR9, 0.094 µM.

`[2H]c1ccc2c(N3C[C@@H]4CN(CCc5ccc(N6C[C@@H](N)[C@H](OC)C6)nc5)CCN4[C@H](C)C3)ccc(C#N)c2n1` [Example 62, 5-[(4R,9aS)-8-[2-[6-[(3R,4R)-3-amino-4-methoxy-pyrrolidin-1-yl]-3-pyridyl]ethyl]-4-methyl-3,4,6,7,9,9a-hexahydro-1H-pyrazino[1,2-a]pyrazin-2-yl]-2-deuterio-quinoline-8-carbonitrile]: the IC50 against human TLR8 is 0.017 µM; at human TLR9, 0.043 µM.

Turning to `C[C@@H]1CN(c2ccc(C#N)c3ncccc23)C[C@@H]2CN(CCc3ccc(N4CC(C)(N)C4)nc3)CCN21` [Example 65, 5-[(4R,9aS)-8-[2-[6-(3-amino-3-methyl-azetidin-1-yl)-3-pyridyl]ethyl]-4-methyl-3,4,6,7,9,9a-hexahydro-1H-pyrazino[1,2-a]pyrazin-2-yl]quinoline-8-carbonitrile], the IC50 at human TLR8 stood at 0.028 µM; on human TLR9 it was 0.05 µM.

Consider `C[C@@H]1CN(c2ccc(C#N)c3ncccc23)C[C@@H]2CN(CCc3ccc(N4CCNCC4)nc3)CCN21` [Example 11, 5-[(4R,9aS)-4-methyl-8-[2-(6-piperazin-1-yl-3-pyridyl)ethyl]-3,4,6,7,9,9a-hexahydro-1H-pyrazino[1,2-a]pyrazin-2-yl]quinoline-8-carbonitrile], for which the IC50 at human TLR8 came to 0.021 µM; on human TLR9, 0.037 µM.

For the origin of these results see patent US20220340597A1, “HEXAHYDRO-1H-PYRAZINO[1,2-A]PYRAZINE COMPOUNDS FOR THE TREATMENT OF AUTOIMMUNE DISEASE” (Hoffmann-La Roche Inc., priority 2019, published 2022).
